Source: PubChem BioAssay AID264 (DTP/NCI, 2004)
Values joined by “and” are separate entries in the source; they are usually repeats but may differ in a detail not shown here. Equal values may be shown once. Records with an inconclusive call do not appear.

System: nude mice, LX-1 lung xenograft intrarenal, tumor weight T/C
Assay: NCI In Vivo Anticancer Drug Screen. Data for tumor model Human Lung LX-1 Xenograft (intrarenal inoculation) in NU/NU Swiss (nude) mice
Settings: endpoint: mean tumor weight change, higher = larger tumour
How it was run: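 Tumor-bearing mice receive test compound or vehicle; tumor size is then measured in each group. The treated value is divided by the vehicle value to give T/C.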

[1] = dose: 100.0 mg/kg/injection, schedule: Q04DX003 (sc), vehicle: suspension in saline
[2] = dose: 400.0 mg/kg/injection, schedule: Q04DX003 (sc), vehicle: suspension in saline
[3] = dose: 800.0 mg/kg/injection, schedule: Q04DX003 (sc), vehicle: suspension in saline
[4] = dose: 400.0 mg/kg/injection, schedule: Q04DX003 (sc), vehicle: saline with Tween-80
[5] = dose: 200.0 mg/kg/injection, schedule: Q04DX003 (sc), vehicle: suspension in saline

For `CCSC(=O)N1c2ccc(OC)cc2C=CC1C#N` (stereo not drawn), the T/C (dose: 2400.0 mg/kg/injection, schedule: Q04DX003 (sc), vehicle: saline with Tween-80) was 32 % of control (2×) and 40 % of control and the T/C (dose: 4800.0 mg/kg/injection, schedule: Q04DX003 (sc), vehicle: saline with Tween-80) was 16 % of control and 17 % of control and 23 % of control.

`CCCC(=O)O` was tested, and the T/C (dose: 100.0 mg/kg/injection, schedule: Q01DX010 (sc), vehicle: saline) was 103 % of control, the T/C (dose: 200.0 mg/kg/injection, schedule: Q01DX010 (sc), vehicle: saline) was 77 % of control and the T/C (dose: 400.0 mg/kg/injection, schedule: Q01DX010 (sc), vehicle: saline) was 71 % of control.

In the case of `N=C(N)SCc1c2ccccc2c(CSC(=N)N)c2ccccc12`, the T/C [1] is reported as 104 % of control, the T/C [2] is reported as 93 % of control and the T/C [3] is reported as 96 % of control.

For `COc1cccc2c1C(=O)c1c(O)c3c(c(O)c1C2=O)C[C@@](O)(/C(C)=N/NC(=O)c1cccc([N+](=O)[O-])c1)C[C@@H]3OC1CC(N)C(O)C(C)O1` (stereo partly drawn), the T/C (dose: 8.0 mg/kg/injection, schedule: Q01DX010 (sc), vehicle: water) was 68 % of control, the T/C (dose: 16.0 mg/kg/injection, schedule: Q01DX010 (sc), vehicle: water) was 78 % of control and the T/C (dose: 24.0 mg/kg/injection, schedule: Q04DX003 (sc), vehicle: water) was 54 % of control. The T/C (dose: 48.0 mg/kg/injection, schedule: Q04DX003 (sc), vehicle: water) was 9 % of control and the T/C (dose: 96.0 mg/kg/injection, schedule: Q04DX003 (sc), vehicle: water) was 25 % of control.

For `COC12C(COC(N)=O)C3=C(C(=O)C(C)=C(N)C3=O)N1CC1C2N1C` (stereo not drawn), the T/C (dose: 8.0 mg/kg/injection, schedule: Q01DX010 (sc), vehicle: saline) was 1 % of control and -17 % of control.

For `O=C1CN(CN2CCOCC2)C(=O)CN1CN1CCOCC1`, the T/C (dose: 50.0 mg/kg/injection, schedule: Q01DX010 (sc), vehicle: suspension in saline) was 116 % of control and the T/C (dose: 200.0 mg/kg/injection, schedule: Q01DX010 (sc), vehicle: suspension in saline) was 156 % of control.

`COc1nc(=O)n(C2C=CC(=O)O2)cc1F` (stereo not drawn) was tested, and the T/C (dose: 25.0 mg/kg/injection, schedule: Q04DX003 (sc), vehicle: Klucel (hydroxypropylcellulose) (HPC)) was 66 % of control, the T/C (dose: 50.0 mg/kg/injection, schedule: Q04DX003 (sc), vehicle: Klucel (hydroxypropylcellulose) (HPC)) was 54 % of control and the T/C (dose: 100.0 mg/kg/injection, schedule: Q04DX003 (sc), vehicle: Klucel (hydroxypropylcellulose) (HPC)) was 37 % of control.

With `CCCCCCOC(CN(C)C)C(Cl)(Cl)Cl` (stereo not drawn) the T/C (dose: 200.0 mg/kg/injection, schedule: Q04DX003 (sc), vehicle: saline with Tween-80) was 121 % of control, the T/C [4] was 95 % of control and the T/C (dose: 800.0 mg/kg/injection, schedule: Q04DX003 (sc), vehicle: saline with Tween-80) was 59 % of control. For the same compound, the T/C (dose: 1600.0 mg/kg/injection, schedule: Q04DX003 (sc), vehicle: saline with Tween-80) was 74 % of control.

For `N=C(N)Sc1cc(O)ccc1O`, the T/C (dose: 75.0 mg/kg/injection, schedule: Q04DX003 (sc), vehicle: saline) was 91 % of control and the T/C (dose: 150.0 mg/kg/injection, schedule: Q04DX003 (sc), vehicle: saline) was 164 % of control.

`Cc1ncc(CNC(=O)N(CCCl)N=O)c(N)n1` was tested, and the T/C (dose: 18.75 mg/kg/injection, schedule: Q04DX003 (sc), vehicle: saline) was 61 % of control.

In the case of `O=C(O)CCCCCCCC(=O)O`, the T/C (dose: 150.0 mg/kg/injection, schedule: Q04DX003 (sc), vehicle: distilled water + Tween-80) is reported as 105 % of control, the T/C (dose: 300.0 mg/kg/injection, schedule: Q04DX003 (sc), vehicle: distilled water + Tween-80) is reported as 79 % of control and the T/C (dose: 600.0 mg/kg/injection, schedule: Q04DX003 (sc), vehicle: distilled water + Tween-80) is reported as 60 % of control. For the same compound, the T/C (dose: 1200.0 mg/kg/injection, schedule: Q04DX003 (sc), vehicle: distilled water + Tween-80) was 50 % of control.

In the case of `COC(=O)Nc1nc2ccc(SC)cc2c(=O)[nH]1`, the T/C (dose: 300.0 mg/kg/injection, schedule: Q04DX003 (sc), vehicle: Klucel (hydroxypropylcellulose) (HPC)) is reported as 93 % of control, the T/C (dose: 600.0 mg/kg/injection, schedule: Q04DX003 (sc), vehicle: Klucel (hydroxypropylcellulose) (HPC)) is reported as 93 % of control and the T/C (dose: 1200.0 mg/kg/injection, schedule: Q04DX003 (sc), vehicle: Klucel (hydroxypropylcellulose) (HPC)) is reported as 95 % of control. The T/C (dose: 2400.0 mg/kg/injection, schedule: Q04DX003 (sc), vehicle: Klucel (hydroxypropylcellulose) (HPC)) was 92 % of control.

In the case of `Cn1/c2cc/c1=C(\c1ccc(S(=O)(=O)O)cc1)c1ccc([n-]1)/C(c1ccc(S(=O)(=O)O)cc1)=c1/cc/c([nH]1)=C(\c1ccc(S(=O)(=O)O)cc1)c1ccc([n-]1)/C=2c1ccc(S(=O)(=O)O)cc1.O.O=S(=O)(O)C(F)(F)F.[Cu+2]`, the T/C [5] is reported as 100 % of control, the T/C [2] is reported as 109 % of control and the T/C [3] is reported as 94 % of control.

For `CC(=O)OCC1OC([S-])C(OC(C)=O)C(OC(C)=O)C1OC(C)=O.CC[PH+](CC)CC.CC[PH+](CC)CC.[Au].[Au]` (stereo not drawn), the T/C (dose: 3.12 mg/kg/injection, schedule: Q04DX003 (sc), vehicle: Klucel (hydroxypropylcellulose) (HPC)) was 110 % of control, the T/C (dose: 6.25 mg/kg/injection, schedule: Q04DX003 (sc), vehicle: Klucel (hydroxypropylcellulose) (HPC)) was 88 % of control and the T/C (dose: 12.5 mg/kg/injection, schedule: Q04DX003 (sc), vehicle: Klucel (hydroxypropylcellulose) (HPC)) was 75 % of control.

With `Nc1ncnc2c1ccn2C1OC(CO)C(O)C1O` (stereo not drawn) the T/C (dose: 1.0 mg/kg/injection, schedule: Q01DX010 (sc), vehicle: Klucel (hydroxypropylcellulose) (HPC)) was 85 % of control, the T/C (dose: 2.0 mg/kg/injection, schedule: Q01DX010 (sc), vehicle: Klucel (hydroxypropylcellulose) (HPC)) was 101 % of control and the T/C (dose: 4.0 mg/kg/injection, schedule: Q01DX010 (sc), vehicle: Klucel (hydroxypropylcellulose) (HPC)) was 53 % of control.

With `O=P1(N(CCCl)CCCl)NCCCO1` (stereo not drawn) the T/C (dose: 3.13 mg/kg/injection, schedule: Q01DX010 (sc), vehicle: saline) was 76 % of control, the T/C (dose: 6.25 mg/kg/injection, schedule: Q01DX010 (ip), vehicle: saline) was 48 % of control and the T/C (dose: 6.25 mg/kg/injection, schedule: Q01DX010 (sc), vehicle: saline) was 85 % of control. For the same compound, the T/C (dose: 12.5 mg/kg/injection, schedule: Q01DX010 (ip), vehicle: saline) was 29 % of control, the T/C (dose: 20.8 mg/kg/injection, schedule: Q04DX003 (ip), vehicle: saline) was 151 % of control and the T/C (dose: 25.0 mg/kg/injection, schedule: Q01DX010 (ip), vehicle: saline) was 56 % of control. For the same compound, the T/C (dose: 41.66 mg/kg/injection, schedule: Q04DX003 (ip), vehicle: saline) was 51 % of control, the T/C (dose: 41.66 mg/kg/injection, schedule: Q04DX003 (sc), vehicle: saline) was 44 % of control and the T/C (dose: 50.0 mg/kg/injection, schedule: Q04DX003 (sc), vehicle: suspension in saline) was 87 % of control and 92 % of control. The T/C (dose: 83.33 mg/kg/injection, schedule: Q04DX003 (sc), vehicle: saline) was 20 % of control, the T/C (dose: 100.0 mg/kg/injection, schedule: Q04DX003 (sc), vehicle: saline) was 28 % of control and the T/C [1] was 70 % of control and 90 % of control. The T/C (dose: 200.0 mg/kg/injection, schedule: Q04DX003 (sc), vehicle: saline) was 13 % of control and the T/C [5] was 42 % of control.

`CC1=CC(C)(C)Nc2ccc(CSc3ccccc3)cc21` was tested, and the T/C (dose: 75.0 mg/kg/injection, schedule: Q01DX010 (sc), vehicle: saline + Tween-80 + alcohol) was 105 % of control, the T/C (dose: 150.0 mg/kg/injection, schedule: Q01DX010 (sc), vehicle: saline + Tween-80 + alcohol) was 105 % of control and the T/C (dose: 300.0 mg/kg/injection, schedule: Q01DX010 (sc), vehicle: saline + Tween-80 + alcohol) was 85 % of control.

For `O=C1c2c(O)ccc(O)c2C(=O)c2c(NCCNCCO)ccc(NCCNCCO)c21`, the T/C (dose: 0.5 mg/kg/injection, schedule: Q01DX010 (sc), vehicle: acid diluted with saline) was 57 % of control, the T/C (dose: 0.5 mg/kg/injection, schedule: Q01DX010 (sc), vehicle: water) was 47 % of control and the T/C (dose: 1.0 mg/kg/injection, schedule: Q01DX010 (sc), vehicle: acid diluted with saline) was 40 % of control. For the same compound, the T/C (dose: 1.0 mg/kg/injection, schedule: Q01DX010 (sc), vehicle: water) was 34 % of control, the T/C (dose: 2.0 mg/kg/injection, schedule: Q01DX010 (sc), vehicle: acid diluted with saline) was 52 % of control and the T/C (dose: 5.0 mg/kg/injection, schedule: Q04DX003 (sc), vehicle: water) was 53 % of control. The T/C (dose: 10.0 mg/kg/injection, schedule: Q04DX003 (sc), vehicle: water) was 26 % of control.

For `BrC[P+](CBr)(CBr)CBr`, the T/C [4] was 156 % of control.

For `CCCCN(CCCC)C(Cl)=Nc1ccccc1`, the T/C (dose: 400.0 mg/kg/injection, schedule: Q04DX003 (sc), vehicle: other) was 116 % of control.

`COC1=CC(=O)C(OC)=C(OC)C1=O` was tested, and the T/C (dose: 38.0 mg/kg/injection, schedule: Q04DX003 (sc), vehicle: saline with Tween-80) was 122 % of control, the T/C (dose: 75.0 mg/kg/injection, schedule: Q04DX003 (sc), vehicle: saline with Tween-80) was 72 % of control and the T/C (dose: 150.0 mg/kg/injection, schedule: Q04DX003 (sc), vehicle: saline with Tween-80) was 104 % of control. The T/C (dose: 300.0 mg/kg/injection, schedule: Q04DX003 (sc), vehicle: saline with Tween-80) was 122 % of control.
